The source of these data is article doi:10.1101/2021.01.22.427858v1 (biorxiv, 2021).

T1 sequence (P02768 25-609): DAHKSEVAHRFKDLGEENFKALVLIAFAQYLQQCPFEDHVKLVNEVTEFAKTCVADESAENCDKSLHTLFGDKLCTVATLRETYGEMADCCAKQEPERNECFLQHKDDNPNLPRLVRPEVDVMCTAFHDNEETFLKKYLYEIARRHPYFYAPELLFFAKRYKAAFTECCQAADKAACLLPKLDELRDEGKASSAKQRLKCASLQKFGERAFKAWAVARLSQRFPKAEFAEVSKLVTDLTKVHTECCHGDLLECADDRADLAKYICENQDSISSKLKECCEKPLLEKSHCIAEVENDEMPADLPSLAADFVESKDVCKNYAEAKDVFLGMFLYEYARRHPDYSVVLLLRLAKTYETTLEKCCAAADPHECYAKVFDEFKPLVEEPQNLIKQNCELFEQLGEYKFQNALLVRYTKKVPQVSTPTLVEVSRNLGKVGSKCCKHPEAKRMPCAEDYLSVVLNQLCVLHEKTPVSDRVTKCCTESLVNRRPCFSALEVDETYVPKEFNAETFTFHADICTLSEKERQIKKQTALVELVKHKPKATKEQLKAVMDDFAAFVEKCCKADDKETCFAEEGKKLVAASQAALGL

One assay has as its target T1, Human Serum Albumin (HSA) (Homo sapiens, UniProt P02768).
Test: not given
The conditions noted are these: binder.
Consider `Cc1c(C2(c3cc(Br)c(O)c(Br)c3C)OS(=O)(=O)c3ccccc32)cc(Br)c(O)c1Br` [Bromocresol Green], for which the “dTm (C)” value came out at 6.29 °C.
Same read-out and setting: in the case of `C[C@H]1O[C@@H](O[C@H]2[C@@H](O)C[C@H](O[C@H]3[C@@H](O)C[C@H](O[C@H]4CC[C@@]5(C)[C@H](CC[C@@H]6[C@@H]5CC[C@]5(C)[C@@H](C7=CC(=O)OC7)CC[C@]65O)C4)O[C@@H]3C)O[C@@H]2C)C[C@H](O)[C@@H]1O` [Digitoxin] it was 3.92 °C.
Still for that read-out and setting: in the case of `COc1ccc2cc([C@H](C)C(=O)O)ccc2c1` [Naproxen] it was 5.52 °C.

Staying with this assay, now noted: ligand concentration not given; binder.
For the compound `CC(NC(C)(C)C)C(=O)c1cccc(Cl)c1` (stereo not drawn) [Buproprion], the “dTm (C)” value worked out at 0.62 °C.
On the same count and under the same terms, in the case of `C[C@H](CS)C(=O)N1CCC[C@H]1C(=O)O` [Captopril] it was -0.41 °C.
Take `COCCc1ccc(OCC(O)CNC(C)C)cc1` (stereo not drawn) [Metoprolol]: the “dTm (C)” value was -0.40 °C.
Still for that read-out and setting: the figure for `Cn1c(=O)c2c(ncn2C)n(C)c1=O` [Caffeine] is 0.47 °C.
On the same count and under the same terms, the figure for `CN(C)C(=N)NC(=N)N` [Metformin] is -0.31 °C; for `C[C@]12CC[C@@H]3c4ccc(O)cc4CC[C@H]3[C@@H]1CC[C@@H]2O` [β-Estradiol] it is 0.92 °C; for `CCN(CC)CCCC(C)Nc1ccnc2cc(Cl)ccc12` (stereo not drawn) [Chloroquine] it is 1.43 °C.
On the same count and under the same terms, the figure for `C=CC1=C(C)/C(=C/c2[nH]c(Cc3[nH]c(/C=C4\NC(=O)C(C)=C4C=C)c(C)c3CCC(=O)O)c(CCC(=O)O)c2C)NC1=O` [Bilirubin] is 0.30 °C; for `O=C1OC2(c3ccc(O)cc3Oc3cc(O)ccc32)c2ccccc21` [Fluorescein] it is 7.95 °C.
With `CCCCNc1ccc(C(=O)OCCN(C)C)cc1` [Tetracaine], the “dTm (C)” value was 3.16 °C.
Still for that read-out and setting: in the case of `CCCCCCCCCC(=O)O` [Decanoic Acid] it was 24.56 °C.

For the next assay, the target named is T1, Human Serum Albumin (HSA). As to the kind of experiment: biochemical.
Settings: not given
Type of assay: binding.
`Cc1c(C2(c3cc(Br)c(O)c(Br)c3C)OS(=O)(=O)c3ccccc32)cc(Br)c(O)c1Br` [Bromocresol Green] displayed a Kd of 3.31 ± 1.7 µM.
Still for that read-out and setting: in the case of `O=C1OC2(c3ccc(O)cc3Oc3cc(O)ccc32)c2ccccc21` [Fluorescein] it was 3.31 ± 1.7 µM.

A further assay addresses T1, Human Serum Albumin (HSA). Put plainly: differential scanning calorimetry. The class given is binding.
Settings: not given
A general note: In DSC, transitions show as peaks or steps in heat flow.
Consider `CN(C)C(=N)NC(=N)N` [Metformin], for which the KD1 was 2.01 ± 0.43 10^-6 M.

In a further assay the target is T1, Human Serum Albumin (HSA). As to the kind of experiment: differential scanning calorimetry, bi-dose-response fit.
Settings: not given
Consider `C[CH2][Hg][S]c1ccccc1C(=O)O` [Thimerosal], for which the KD1 is given as 3.13 ± 0.43 10^-6 M.

A word on the Kd: it is the constant that tells how readily two partners part at equilibrium. Low readings indicate tighter binding, high ones weaker binding.
